Consider 16 molecules from ChEMBL document CHEMBL1145206, “Design, synthesis and structure-activity relationships of novel taxane-based multidrug resistance reversal agents” (2005).

The first assay has as its system MDA-MB-435. Put plainly: MDR-reversal activity evaluated against the resistant human breast tumor cell line MDA-435/LCC6-MDR. Type of assay: functional. Also on record: concentration or dose not given beside the values.
Take `CC(=O)O[C@H]1C(=O)[C@]2(C)[C@@H](OC(=O)/C=C/c3cccc4ccccc34)C[C@H]3OC[C@@]3(OC(C)=O)[C@H]2[C@H](OC(=O)c2ccccc2)[C@]2(O)C[C@H](O)C(C)=C1C2(C)C`: the Reduction is recorded as 50%.

For `CC(=O)O[C@H]1C(=O)[C@]2(C)[C@@H](OC(=O)/C=C/c3ccc(C(=O)c4ccccc4)cc3)C[C@H]3OC[C@@]3(OC(C)=O)[C@H]2[C@H](OC(=O)c2ccccc2)[C@]2(O)C[C@H](OC(C)=O)C(C)=C1C2(C)C`, the Reduction came to 92%.

On to `CC(=O)O[C@H]1C(=O)[C@]2(C)[C@@H](OC(=O)/C=C/c3cccc(NC(=O)c4ccccc4)c3)C[C@H]3OC[C@@]3(OC(C)=O)[C@H]2[C@H](OC(=O)c2ccccc2)[C@]23OC(=O)O[C@H]2[C@H](OC(C)=O)C(C)=C1C3(C)C`, for which the Reduction was found to be 91%.

Regarding `CC(=O)O[C@H]1C(=O)[C@]2(C)[C@@H](OC(=O)/C=C/c3cccc(OC(=O)c4ccccc4)c3)C[C@H]3OC[C@@]3(OC(C)=O)[C@H]2[C@H](OC(=O)c2ccccc2)[C@]2(O)C[C@H](OC(C)=O)C(C)=C1C2(C)C`, the Reduction was 17%.

For `COc1ccccc1C(=O)Oc1ccc(/C=C/C(=O)O[C@H]2C[C@H]3OC[C@@]3(OC(C)=O)[C@H]3[C@H](OC(=O)c4ccccc4)[C@]4(O)C[C@H](OC(C)=O)C(C)=C([C@@H](OC(C)=O)C(=O)[C@]23C)C4(C)C)cc1`, the Reduction turned out to be 57%.

With `CC(=O)O[C@H]1C(=O)[C@]2(C)[C@@H](OC(=O)c3ccnc4ccccc34)C[C@H]3OC[C@@]3(OC(C)=O)[C@H]2[C@H](OC(=O)c2ccccc2)[C@]2(O)C[C@H](OC(C)=O)C(C)=C1C2(C)C`, the Reduction is on record as 36%.

The test system of another assay is MCF7R. Put plainly: MDR-reversal activity evaluated against the resistant human breast tumor cell line MCF7-R. Type of assay: functional. Set-up: concentration or dose not given beside the values.
As to `CC(=O)O[C@H]1C(=O)[C@]2(C)[C@@H](OC(=O)CCc3cccc4ccccc34)C[C@H]3OC[C@@]3(OC(C)=O)[C@H]2[C@H](OC(=O)c2ccccc2)[C@]2(O)C[C@H](O)C(C)=C1C2(C)C`, the Reduction was 96%.

With `CC(=O)O[C@@]12CO[C@@H]1C[C@H](OC(=O)/C=C/c1ccc3ccccc3c1)[C@@]1(C)C(=O)[C@H](OC(=O)/C=C/c3ccc4ccccc4c3)C3=C(C)[C@@H](O)C[C@@](O)([C@@H](OC(=O)c4ccccc4)[C@H]21)C3(C)C`, the Reduction is 45%.

For `CC(=O)O[C@@]12CO[C@@H]1C[C@H](OC(=O)/C=C/c1ccc3ccccc3c1)[C@@]1(C)C(=O)[C@H](OC(=O)CCc3ccc(C(=O)c4ccccc4)cc3)C3=C(C)[C@@H](O)C[C@@](O)([C@@H](OC(=O)c4ccccc4)[C@H]21)C3(C)C`, the Reduction came out at 0%.

For the molecule `CC(=O)O[C@H]1C(=O)[C@]2(C)[C@@H](OC(=O)/C=C/c3cccc4ccccc34)C[C@H]3OC[C@@]3(OC(C)=O)[C@H]2[C@H](OC(=O)c2ccccc2)[C@]2(O)C[C@H](O)C(C)=C1C2(C)C`, the Reduction is 96%.

As to `CC(=O)O[C@@]12CO[C@@H]1C[C@H](O)[C@@]1(C)C(=O)[C@H](OC(=O)/C=C/c3ccc(C(=O)c4ccccc4)cc3)C3=C(C)[C@@H](O)C[C@@](O)([C@@H](OC(=O)c4ccccc4)[C@H]21)C3(C)C`, the Reduction is given as 95%.

With `CC(=O)O[C@H]1C(=O)[C@]2(C)[C@@H](OC(=O)CCC3CCCC4CCCCC43)C[C@H]3OC[C@@]3(OC(C)=O)[C@H]2[C@H](OC(=O)C2CCCCC2)[C@]2(O)C[C@H](O)C(C)=C1C2(C)C` (stereo partly drawn), the Reduction is listed as 81%.

As for `CC(=O)O[C@H]1C(=O)[C@]2(C)[C@@H](OC(=O)/C=C/c3ccc4ccccc4c3)C[C@H]3OC[C@@]3(OC(C)=O)[C@H]2[C@H](OC(=O)c2ccccc2)[C@]2(O)C[C@H](OC(C)=O)C(C)=C1C2(C)C`, the Reduction was determined as 99.3%.

As to `CC(=O)O[C@H]1C(=O)[C@]2(C)[C@@H](OC(=O)/C=C/c3ccc(C(=O)c4ccccc4)cc3)C[C@H]3OC[C@@]3(OC(C)=O)[C@H]2[C@H](OC(=O)c2ccccc2)[C@]2(O)C[C@H](OC(C)=O)C(C)=C1C2(C)C`, the Reduction is reported as 99.7%.

For the molecule `CC(=O)O[C@H]1C(=O)[C@]2(C)[C@@H](OC(=O)c3ccc4ccccc4c3)C[C@H]3OC[C@@]3(OC(C)=O)[C@H]2[C@H](OC(=O)c2ccccc2)[C@]2(O)C[C@H](O)C(C)=C1C2(C)C`, the Reduction was found to be 97.5%.

With `CC(=O)O[C@@]12CO[C@@H]1C[C@H](OC(=O)CCc1ccc(C(=O)c3ccccc3)cc1)[C@@]1(C)C(=O)[C@H](OC(=O)CCc3ccc(C(=O)c4ccccc4)cc3)C3=C(C)[C@@H](O)C[C@@](O)([C@@H](OC(=O)c4ccccc4)[C@H]21)C3(C)C`, the Reduction turned out to be 99.7%.

Take `CC(=O)O[C@H]1C(=O)[C@]2(C)[C@@H](OC(=O)/C=C/c3ccc(C(=O)c4ccccc4)cc3)C[C@H]3OC[C@@]3(OC(C)=O)[C@H]2[C@H](OC(=O)c2ccccc2)[C@]2(O)C[C@H](O)C(C)=C1C2(C)C`: the Reduction came out at 99.8%.

As for `CC(=O)O[C@H]1C(=O)[C@]2(C)[C@@H](OC(=O)CNC(=O)c3ccc4ccccc4c3)C[C@H]3OC[C@@]3(OC(C)=O)[C@H]2[C@H](OC(=O)c2ccccc2)[C@]2(O)C[C@H](O)C(C)=C1C2(C)C`, the Reduction was 42%.
